Measurements taken from PubChem BioAssay AID2060513 (Molecular Pharmacology Branch, DTP, NCI, 2025).

System: 299254-011-R-J1-PDC complex spheroids viability
Assay: Anticancer human tumor 299254-011-R-J1-PDC patient-derived melanoma cell line growth inhibition [GQUAD]
Details: for IC50: curve of first compound; for viability, T/C: stronger effect = lower value
Description: DNA G-quadruplex Stabilizer Agents in Combinations in Complex Spheroids
A high-throughput screen of multi-cell type tumor spheroids was designed to identify active combinations of DNA G-quadruplex stabilizer agents and targeted small molecules. Complex spheroids include a stromal component modeled by human endothelial cells (HUVEC) and fibroblasts modeled by human mesenchymal stem cells (MSCs). The concentration ranges selected for each drug and investigational agent were based upon clinically achievable concentrations if the clinical Cmax of the agent was known.
Compounds. The drugs and investigational agents: pidnarulex (CX-5461; NSC782164), APTO-253 (NSC789042), BRACO-19 (NSC847499), peposertib (NSC802822), ceralasertib (NSC780249), elimusertib (NSC800525), camonsertib (NSC841442), AZD-1390 (NSC803789), olaparib (NSC753686), talazoparib (NSC767125), ART-558 (NSC835418), sotorasib (NSC818433), MRTX-1133 (NSC836407), SN-38 (NSC673596), topotecan (NSC609699), etoposide (NSC141540), doxorubicin (NSC123127), gemcitabine (NSC613327), 5-fluorouracil (NSC19893), paclitaxel (NSC125973), vemurafenib (NSC761431), panobinostat (NSC761190), R-306465 (JNJ-16241199; NSC773264), adavosertib (NSC754352), TP-3654 (NSC805149), carboplatin (NSC241240), KSQ-4279 (NSC840948), and staurosporine (NSC755774) were obtained from the National Cancer Institute (NCI) Developmental Therapeutics Program Chemical Repository (34). The FDA-approved anticancer drug set is available from the NCI Developmental Therapeutics Program. […] The stock solutions were prepared in dimethyl sulfoxide (DMSO, Sigma-Aldrich, St. Louis, MO, cat. D2650) at 800-fold the tested concentration and stored at -70 degrees C prior to their use. All drugs and investigational agents were tested over a range starting from a high concentration at or near the clinical Cmax and decreasing in half-log increments. If the clinical Cmax for an agent had not been determined, the highest concentration tested was 10 microM.
2.3 Cell Culture. All cells were maintained in an incubator at 37 degrees C and 5% CO2 with 95% humidity. The PDC lines were cultured according to standard operating procedures established by the NCI PDMR. All PDCs were thawed and cultured in Matrigel-coated flasks prepared with a working solution of 1X Ham's F-12 nutrient mix, without supplementation (Invitrogen, cat. 11765054), 100 U/mL penicillin-streptomycin (Invitrogen, cat. 15140122), and 2.5% Matrigel (Corning Inc., cat. 354248) for the first three passages. The 857933-349-R-J2-PDC line was cultured in 6C/Colon 1B media, which includes advanced DMEM/F-12 (Thermo Fisher Scientific, cat. 12634028), 10 mM HEPES (Thermo Fisher Scientific, cat. 15630080), 1X GlutaMAX supplement (Thermo Fisher Scientific, cat. 35050061), 0.1 mg/mL primocin (InvivoGen, cat. ant-pm-2), 10% defined fetal bovine serum, heat inactivated (HyClone Laboratories Inc., cat. SH30070.03HI), 50% L-WRN conditioned media (ATCC, cat. CRL-3276), 1.25 mM N-Acetyl-L-cysteine (Sigma-Aldrich, cat. A9165), 10 mM nicotinamide (Sigma-Aldrich, cat. N0636), 1X B-27 supplement (Thermo Fisher Scientific, cat. 17504044), 1X N-2 supplement (Thermo Fisher Scientific, cat. 17502048), 10 microM Y-27632 dihydrochloride (Tocris Bioscience, cat. 1254), and 50 ng/mL human EGF recombinant protein (Thermo Fisher Scientific, cat. PHG0311). The 485176-168-R4-J1-PDC line was cultured in Panc media, which includes all 6C/Colon 1B media components plus 100 ng/mL human FGF-10 (Thermo Fisher Scientific, cat. 100-26), 500 nM SB-431542 (Selleckchem, cat. S1067), and gastrin (Tocris, cat. 3006).
[…]

[1] = second compound 0.0316 µM, first compound 0.0316 µM
[2] = second compound 0.0316 µM, first compound 0.316 µM
[3] = second compound 0.1 µM, first compound 0.0316 µM
[4] = second compound 0.1 µM, first compound 0.316 µM
[5] = second compound 0.316 µM, first compound 0.0316 µM
[6] = second compound 0.316 µM, first compound 0.316 µM
[7] = second compound 1 µM, first compound 0.0316 µM
[8] = second compound 1 µM, first compound 0.316 µM
[9] = second compound 3.16 µM, first compound 0.0316 µM
[10] = second compound 3.16 µM, first compound 0.316 µM
[11] = second compound 10 µM, first compound 0.0316 µM
[12] = second compound 10 µM, first compound 0.316 µM
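Note: spheroids exposed to the agents for seven days before readout.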
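Throughout, for viability, T/C: percent viability relative to DMSO vehicle control wells = 100%.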

CC[C@@]1(O)C(=O)OCc2c1cc1n(c2=O)Cc2cc3c(CN(C)C)c(O)ccc3nc2-1 + Cc1[nH]c2ccc(F)cc2c1-c1nc2c3cccnc3c3ncccc3c2[nH]1
IC50 (second compound 0.0316 µM): > 0.316 µM | IC50 (second compound 0.1 µM): > 0.316 µM | IC50 (second compound 0.316 µM): > 0.316 µM | IC50 (second compound 1 µM): > 0.316 µM | IC50 (second compound 3.16 µM): > 0.316 µM | IC50 (second compound 10 µM): > 0.316 µM | viability, T/C (second compound 0.0316 µM, first compound 0.000999 µM): 119% | viability, T/C (second compound 0.0316 µM, first compound 0.00316 µM): 92.6% | viability, T/C (second compound 0.0316 µM, first compound 0.00999 µM): 102% | viability, T/C [1]: 85.8% | viability, T/C (second compound 0.0316 µM, first compound 0.0999 µM): 86% | viability, T/C [2]: 79.4% | viability, T/C (second compound 0.1 µM, first compound 0.000999 µM): 115% | viability, T/C (second compound 0.1 µM, first compound 0.00316 µM): 105% | viability, T/C (second compound 0.1 µM, first compound 0.00999 µM): 112% | viability, T/C [3]: 78.2% | viability, T/C (second compound 0.1 µM, first compound 0.0999 µM): 109% | viability, T/C [4]: 74.8% | viability, T/C (second compound 0.316 µM, first compound 0.000999 µM): 86.2% | viability, T/C (second compound 0.316 µM, first compound 0.00316 µM): 88.3% | viability, T/C (second compound 0.316 µM, first compound 0.00999 µM): 89.2% | viability, T/C [5]: 106% | viability, T/C (second compound 0.316 µM, first compound 0.0999 µM): 93.2% | viability, T/C [6]: 77.7% | viability, T/C (second compound 1 µM, first compound 0.000999 µM): 97% | viability, T/C (second compound 1 µM, first compound 0.00316 µM): 103% | viability, T/C (second compound 1 µM, first compound 0.00999 µM): 98.2% | viability, T/C [7]: 101% | viability, T/C (second compound 1 µM, first compound 0.0999 µM): 87.2% | viability, T/C [8]: 86.9% | viability, T/C (second compound 3.16 µM, first compound 0.000999 µM): 87.2% | viability, T/C (second compound 3.16 µM, first compound 0.00316 µM): 116% | viability, T/C (second compound 3.16 µM, first compound 0.00999 µM): 95% | viability, T/C [9]: 111% | viability, T/C (second compound 3.16 µM, first compound 0.0999 µM): 96.8% | viability, T/C [10]: 101% | viability, T/C (second compound 10 µM, first compound 0.000999 µM): 95% | viability, T/C (second compound 10 µM, first compound 0.00316 µM): 97.8% | viability, T/C (second compound 10 µM, first compound 0.00999 µM): 85.1% | viability, T/C [11]: 85.3% | viability, T/C (second compound 10 µM, first compound 0.0999 µM): 116% | viability, T/C [12]: 79.8%

C=CC(=O)N1CCN(c2nc(=O)n(-c3c(C)ccnc3C(C)C)c3nc(-c4c(O)cccc4F)c(F)cc23)C(C)C1 (centres undefined) + Cc1[nH]c2ccc(F)cc2c1-c1nc2c3cccnc3c3ncccc3c2[nH]1
IC50 (second compound 0.0316 µM): > 10 µM | IC50 (second compound 0.1 µM): > 10 µM | IC50 (second compound 0.316 µM): > 10 µM | IC50 (second compound 1 µM): > 10 µM | IC50 (second compound 3.16 µM): > 10 µM | IC50 (second compound 10 µM): > 10 µM | viability, T/C [1]: 85% | viability, T/C (second compound 0.0316 µM, first compound 0.1 µM): 63.2% | viability, T/C [2]: 62% | viability, T/C (second compound 0.0316 µM, first compound 1 µM): 56% | viability, T/C (second compound 0.0316 µM, first compound 3.16 µM): 67.1% | viability, T/C (second compound 0.0316 µM, first compound 10 µM): 75.7% | viability, T/C [3]: 72.9% | viability, T/C (second compound 0.1 µM, first compound 0.1 µM): 85% | viability, T/C [4]: 60.5% | viability, T/C (second compound 0.1 µM, first compound 1 µM): 56.7% | viability, T/C (second compound 0.1 µM, first compound 3.16 µM): 66.2% | viability, T/C (second compound 0.1 µM, first compound 10 µM): 78.3% | viability, T/C [5]: 67.3% | viability, T/C (second compound 0.316 µM, first compound 0.1 µM): 80.1% | viability, T/C [6]: 63.1% | viability, T/C (second compound 0.316 µM, first compound 1 µM): 64.6% | viability, T/C (second compound 0.316 µM, first compound 3.16 µM): 74.2% | viability, T/C (second compound 0.316 µM, first compound 10 µM): 69.9% | viability, T/C [7]: 67.8% | viability, T/C (second compound 1 µM, first compound 0.1 µM): 69.4% | viability, T/C [8]: 66.2% | viability, T/C (second compound 1 µM, first compound 1 µM): 79.8% | viability, T/C (second compound 1 µM, first compound 3.16 µM): 63.7% | viability, T/C (second compound 1 µM, first compound 10 µM): 86.8% | viability, T/C [9]: 73% | viability, T/C (second compound 3.16 µM, first compound 0.1 µM): 81.1% | viability, T/C [10]: 73.8% | viability, T/C (second compound 3.16 µM, first compound 1 µM): 78.4% | viability, T/C (second compound 3.16 µM, first compound 3.16 µM): 74.7% | viability, T/C (second compound 3.16 µM, first compound 10 µM): 69.9% | viability, T/C [11]: 74.4% | viability, T/C (second compound 10 µM, first compound 0.1 µM): 71.5% | viability, T/C [12]: 72.5% | viability, T/C (second compound 10 µM, first compound 1 µM): 67.1% | viability, T/C (second compound 10 µM, first compound 3.16 µM): 77.6% | viability, T/C (second compound 10 µM, first compound 10 µM): 59.4%
